Bounds are passed on as bounds.

Assay [1] deals with ROCK-II (h, amino acids 11-552) (Homo sapiens (Human), UniProt O75116). Kind of assay: ROCK-II (h) inhibition assay. The format is biochemical. The following applies: [γ-32P-ATP] filter assay, 40 minutes at room temperature, read-out: ROCK2 IC50. Here is the method:
ROCK-II (h) Inhibition Assay:
In a final reaction volume of 25 μL, ROCK-II (h, amino acids 11-552) (5-10 mU) was incubated with 50 mM Tris pH 7.5, 0.1 mM EGTA, 30 μM […], 10 mM magnesium acetate and [γ-^32P-ATP] (specific activity approx. 500 cpm/pmol, concentration as required). The reaction was initiated by the addition of the MgATP mix. After incubation for 40 minutes at room temperature, the reaction was stopped by the addition of 5 μL of a 3% phosphoric acid solution. 10 μL of the reaction was then spotted onto a P30 filter-mat and washed three times for 5 minutes in 75 mM phosphoric acid and once in methanol prior to drying and scintillation counting.

For a further assay, the system named is ROCK. The following applies: competition with intracellular micromolar ATP; cited from earlier work.
The test system of assay [2] is ventricular hypertrophy and function. The following applies: Dahl salt-sensitive rats; cited from earlier work.
The subject of another assay is blood pressure. The following applies: spontaneously hypertensive, renal hypertensive and deoxycortisone acetate salt hypertensive rats; cited from earlier work.
In a further assay the test system is neointimal formation. The following applies: rats; cited from earlier work.
A further assay relates to coronary stenosis. The following applies: porcine, long term treatment; cited from earlier work.
Assay [3] deals with infarct size and neurologic deficit. The following applies: rat stroke model; cited from earlier work.

Sequence of ROCK-II (h, amino acids 11-552) (O75116 11-552): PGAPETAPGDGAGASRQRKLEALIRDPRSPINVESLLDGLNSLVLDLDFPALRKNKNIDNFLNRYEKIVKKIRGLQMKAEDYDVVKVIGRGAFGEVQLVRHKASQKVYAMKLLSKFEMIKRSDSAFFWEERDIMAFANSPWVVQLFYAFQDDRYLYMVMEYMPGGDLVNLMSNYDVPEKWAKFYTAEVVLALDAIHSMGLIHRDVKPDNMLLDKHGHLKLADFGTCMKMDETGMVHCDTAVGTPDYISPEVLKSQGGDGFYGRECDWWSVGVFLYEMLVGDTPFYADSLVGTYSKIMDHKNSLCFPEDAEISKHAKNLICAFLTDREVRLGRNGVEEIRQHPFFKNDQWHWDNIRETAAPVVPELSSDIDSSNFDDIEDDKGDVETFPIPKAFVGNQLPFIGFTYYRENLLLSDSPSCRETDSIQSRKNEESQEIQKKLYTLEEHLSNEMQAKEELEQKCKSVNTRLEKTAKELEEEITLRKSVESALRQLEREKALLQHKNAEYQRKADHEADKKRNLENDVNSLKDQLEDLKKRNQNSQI

By IC50 is commonly meant the midpoint of a concentration-inhibition curve. Regarding `C[C@@]1(Cc2ccc(-c3ccncc3)cc2)NC(=O)c2cc(Cl)ccc2NC1=O` [Compound 2, (S)-7-chloro-3-methyl-3-(4-(pyridin-4-yl)benzyl)-3,4-dihydro-1H-benzo[e][1,4]diazepine-2,5-dione], the 50% inhibitory concentration (IC50) in assay [1] was greater than 10000 nM.
For `C[C@@H](N)[C@H]1CC[C@H](C(=O)Nc2ccncc2)CC1` [Compound Y-27632, Y-27632], the “decrease in activity in cellular assays as compared to in vitro activities” value in the assay with ROCK is 100-1,000 fold. Moreover, the “effect on ventricular hypertrophy and function” value in assay [2] was “improve ventricular hypertrophy and function”. Also, the “effect on blood pressure” value in the assay with blood pressure was “significantly decrease blood pressure”. Also, the “effect on neointimal formation” value in the assay on neointimal formation is “inhibited neointimal formation”.
On to `O=S(=O)(c1cccc2cnccc12)N1CCCNCC1` [fasudil], for which the “effect on coronary stenosis” value in the assay on coronary stenosis is listed as “progressively reduce coronary stenosis”. The “effect on infarct size and neurologic deficit” value in assay [3] is “reduce both the infarct size and neurologic deficit”.
On to `CN1C(=O)[C@@H](Cc2ccc(-c3ccncc3)cc2)NC(=O)c2cccc(Cl)c21` [Compound 5, (R)-9-chloro-1-methyl-3-(4-(pyridin-4-yl)benzyl)-3,4-dihydro-1H-benzo[e][1,4]diazepine-2,5-dione], for which the 50% inhibitory concentration (IC50) in assay [1] was determined as 1000 nM.

The values are drawn from patent US9849138B2, “1,4-benzodiazepone-2,5-diones and related compounds with therapeutic properties” (The Regents of the University of Michigan, priority 2009, dated 2017).
